Assay results as given in patent US20140128606A1, “ANTIPRURITIC AGENT” (Toray Industries, Inc., priority 2011, published 2014).
Structures can show the parent of a compound that is named as a salt. Where two headings read alike, the source gives them in different places.

Tests used:
[1] = test system: substance P-induced scratching behavior; experiment: Inhibitory effect on substance P-induced scratching behavior in mice (MicroAct automatic detection); format: in vivo, mouse; conditions: for Number of scratching behavior (means ± standard error): counted for 15 minutes
From the text: Substance P-induced scratching behavior in mice which is an intractable pruritus model was induced by the method described in a known document (Togashi et al., European Journal of Pharmacology, 2002, Vol. 435, p. 259 and the like). Further, evaluation of the scratching behavior was objectively carried out by automatic detection using MicroAct (NeuroScience, Inc.) based on the method described in a known document (Hashimoto et al., Allergology International, 2004, Vol. 53, p. 349).
More particularly, at least five days before the evaluation of drug effect, neodymium magnets (diameter: 1 mm, length: 3 mm) coated with Parafilm were subcutaneously inserted into the insteps of both hind limbs of 5 to 7 week-old male ICR mouse (Japan SLC, Inc.) under isoflurane anesthesia. One or two days before the day of the evaluation of drug effect, the hair of the rostral part of the back of the mouse was shaved with a hair clipper under isoflurane anesthesia. At least one hour before the start of the measurement of the number of scratching behavior, each mouse (6 to 8 weeks old) was individually placed in a chamber for measurement (diameter: 11 cm, height: 18 cm) for acclimation. After the acclimation, substance P (5 mmol/L) or phosphate-buffered saline (hereinafter referred to as PBS) as a solvent thereof was intradermally administered (0.05 mL/site) into the rostral part of the back, and the measurement of the number of scratching behavior was started immediately after the administration. The number of scratching behavior was recorded by amplifying electric current induced by the movement of the magnets inserted in the hind limbs in a round coil surrounding the chamber for measurement. The measurement was carried out under unattended environment, and the evaluation of the drug effect was carried out by using the number of scratching behavior occurred for 15 minutes after the start of the measurement as an index.
A test compound or a solvent thereof was administered in an amount of 10 mL/kg 30 to 60 minutes before the start of the measurement of the number of scratching behavior. Varenicline tartrate (Tocris Bioscience) was dissolved in PBS and intraperitoneally administered in a dose of 1, 3 or 10 mg/kg 60 minutes before the start of the measurement of the number of scratching behavior. N-(1-azabicyclo[2.2.2]oct-3(R)-yl)-4-chlorobenzamide hydrochloride (PNU-282987) hydrate (Sigma-Aldrich) was dissolved in PBS and intraperitoneally administered in a dose of 0.3 or 1 mg/kg 45 minutes before the start of the measurement of the number of scratching behavior. The compound of Reference Example 1 was dissolved in PBS and intraperitoneally administered in a dose of 0.1 or 0.3 mg/kg 30 minutes before the start of the measurement of the number of scratching behavior. The compound of Reference Example 2 was dissolved in PBS and intraperitoneally administered in a dose of 1, 3, or 10 mg/kg 45 minutes before the start of the measurement of the number of scratching behavior. The compound of Reference Example 3 was dissolved in distilled water and orally administered in a dose of 1, 3, or 10 mg/kg 30 minutes before the start of the measurement of the number of scratching behavior. The compound of Reference Example 4 was dissolved in PBS and intraperitoneally administered in a dose of 1, 3, or 10 mg/kg 45 minutes before the start of the measurement of the number of scratching behavior. The compound of Reference Example 5 was dissolved in PBS and intraperitoneally administered in a dose of 1, 3, or 10 mg/kg 30 minutes before the start of the measurement of the number of scratching behavior. The compound of Reference Example 6 was dissolved in PBS and intraperitoneally administered in a dose of 1, 3, or 10 mg/kg, 30 minutes before the start of the measurement of the number of scratching behavior. […]

[2] = test system: substance P-induced scratching behavior; conditions: literature; cited from earlier work
[3] = Mus musculus, ip, read-out: Inhibition rate
[4] = i.p., 0.3 mg/kg, substance P 250 nmol/site
[5] = i.p., 1 mg/kg, substance P 250 nmol/site
[6] = Mus musculus, ip, 0.1 mg/kg, substance P 250 nmol/site, read-out: Inhibition rate
[7] = Mus musculus, ip, 0.3 mg/kg, substance P 250 nmol/site, read-out: Inhibition rate
[8] = i.p., 0.1 mg/kg, substance P 250 nmol/site
[9] = Mus musculus, ip, 1 mg/kg, substance P 250 nmol/site, read-out: Inhibition rate
[10] = Mus musculus, ip, 3 mg/kg, substance P 250 nmol/site, read-out: Inhibition rate
[11] = Mus musculus, ip, 10 mg/kg, substance P 250 nmol/site, read-out: Inhibition rate
[12] = i.p., 3 mg/kg, substance P 250 nmol/site
[13] = i.p., 10 mg/kg, substance P 250 nmol/site
[14] = p.o., 10 mg/kg, substance P 250 nmol/site
[15] = Mus musculus, po, read-out: Inhibition rate

## Cl.O=C(N[C@H]1CN2CCC1CC2)c1ccc(Cl)cc1 [PNU-282987 hydrate, N-(1-azabicyclo[2.2.2]oct-3(R)-yl)-4-chlorobenzamide hydrochloride, reference compound]
[1]; [3]
  inhibition at 0.3 mg/kg: 42%
  inhibition at 1 mg/kg: 72%
[1]; [4]
  Number of scratching behavior (means ± standard error): 81 ± 9
[1]; [5]
  Number of scratching behavior (means ± standard error): 48 ± 8

## Cl.Clc1ccc(OC[C@H]2CCN2)cn1 [Reference Example 1, (R)-2-Chloro-5-(2-azetidinylmethoxy)pyridine hydrochloride]
[1]; [6]
  inhibition at 0.1 mg/kg: 107%
[1]; [7]
  inhibition at 0.3 mg/kg: 121%
[1]; [8]
  Number of scratching behavior (means ± standard error): 21 ± 8
[1]; [4]
  Number of scratching behavior (means ± standard error): 6 ± 2

## O=C(N[C@@H]1C2CCN(CC2)[C@H]1Cc1cccnc1)c1cc2ccccc2o1 [Reference Example 2, N-(2(S)-(Pyridin-3-ylmethyl)-1-azabicyclo[2.2.2]oct-3(R)-yl)-1-benzofuran-2-carboxamide]
[1]; [9]
  inhibition at 1 mg/kg: 71%
[1]; [10]
  inhibition at 3 mg/kg: 38%
[1]; [11]
  inhibition at 10 mg/kg: 62%
[1]; [5]
  Number of scratching behavior (means ± standard error): 67 ± 10
[1]; [12]
  Number of scratching behavior (means ± standard error): 97 ± 14
[1]; [13]
  Number of scratching behavior (means ± standard error): 75 ± 8

## Cl.O=C(N[C@H]1CN2CCC1CC2)c1cc2cccc(Cl)c2s1 [Reference Example 3, (R)-7-Chloro-N-(quinuclidin-3-yl)benzo[b]thiophene-2-carboxamide hydrochloride]
[1]; Mus musculus, po, 1 mg/kg, substance P 250 nmol/site, read-out: Inhibition rate
  inhibition at 1 mg/kg: 32%
[1]; Mus musculus, po, 3 mg/kg, substance P 250 nmol/site, read-out: Inhibition rate
  inhibition at 3 mg/kg: 51%
[1]; Mus musculus, po, 10 mg/kg, substance P 250 nmol/site, read-out: Inhibition rate
  inhibition at 10 mg/kg: 79%
[1]; p.o., 1 mg/kg, substance P 250 nmol/site
  Number of scratching behavior (means ± standard error): 71 ± 14
[1]; p.o., 3 mg/kg, substance P 250 nmol/site
  Number of scratching behavior (means ± standard error): 57 ± 13
[1]; [14]
  Number of scratching behavior (means ± standard error): 36 ± 8

## Cl.O=C(Oc1ccc(Br)cc1)N1CCN2CCC1CC2 [Reference Example 4, 1,4-Diazabicyclo[3.2.2]nonane-4-carboxylic acid 4-bromophenyl ester hydrochloride]
[1]; [3]
  inhibition at 1 mg/kg: 32%
  inhibition at 3 mg/kg: 63%
  inhibition at 10 mg/kg: 80%
[1]; [5]
  Number of scratching behavior (means ± standard error): 89 ± 12
[1]; [12]
  Number of scratching behavior (means ± standard error): 59 ± 14
[1]; [13]
  Number of scratching behavior (means ± standard error): 42 ± 6

## Cc1ccc2oc(N3CCN4CCC3CC4)nc2n1.Cl [Reference Example 5, 2-(1,4-Diazabicyclo[3.2.2]non-4-yl)-5-methyloxazolo[4,5-b]pyridine hydrochloride]
[1]; [9]
  inhibition at 1 mg/kg: 25%
[1]; [10]
  inhibition at 3 mg/kg: 46%
[1]; [11]
  inhibition at 10 mg/kg: 59%
[1]; [5]
  Number of scratching behavior (means ± standard error): 82 ± 6
[1]; [12]
  Number of scratching behavior (means ± standard error): 62 ± 11
[1]; [13]
  Number of scratching behavior (means ± standard error): 50 ± 12

## Cl.O=C(CCCCN1CCOCC1)Nc1ccc(-c2cccnc2)cc1 [Reference Example 6, 5-(4-Morpholinyl)-N-(4-(3-pyridyl)phenyl)pentanamide hydrochloride]
[1]; [9]
  inhibition at 1 mg/kg: 32%
[1]; [10]
  inhibition at 3 mg/kg: 52%
[1]; [11]
  inhibition at 10 mg/kg: 104%
[1]; [5]
  Number of scratching behavior (means ± standard error): 94 ± 15
[1]; [12]
  Number of scratching behavior (means ± standard error): 78 ± 10
[1]; [13]
  Number of scratching behavior (means ± standard error): 36 ± 5

## CN1C[C@@H]2CN(c3ccc(-c4ccccc4)nn3)C[C@@H]2C1 [Reference Example 7, cis-2-methyl-5-(6-phenylpyridazin-3-yl)perhydropyrrolo[3,4-c]pyrrole fumarate]
[1]; [3]
  inhibition at 0.3 mg/kg: 25%
  inhibition at 1 mg/kg: 79%
  inhibition at 3 mg/kg: 66%
[1]; [4]
  Number of scratching behavior (means ± standard error): 101 ± 20
[1]; [5]
  Number of scratching behavior (means ± standard error): 37 ± 8
[1]; [12]
  Number of scratching behavior (means ± standard error): 52 ± 9

## C[C@H](OC(=O)N[C@@H]1CN2CCC1CC2)c1ccccc1F [Reference Example 8, (S)-1-(2-fluorophenyl)ethyl(S)-quinuclidin-3-ylcarbamate]
[1]; [15]
  inhibition at 10 mg/kg: 41%
  inhibition at 30 mg/kg: 49%
[1]; [14]
  Number of scratching behavior (means ± standard error): 92 ± 17
[1]; p.o., 30 mg/kg, substance P 250 nmol/site
  Number of scratching behavior (means ± standard error): 83 ± 19

## O=C(N[C@H]1CN2CCC1CC2)c1cc2ccoc2cn1 [Reference Example 9, N-(1-Azabicyclo[2.2.2]oct-3(R)-yl)furo[2,3-c]pyridine-5-carboxamide dihydrochloride]
[1]; [6]
  inhibition at 0.1 mg/kg: 10%
[1]; [7]
  inhibition at 0.3 mg/kg: 43%
[1]; [9]
  inhibition at 1 mg/kg: 70%
[1]; [8]
  Number of scratching behavior (means ± standard error): 109 ± 21
[1]; [4]
  Number of scratching behavior (means ± standard error): 76 ± 18
[1]; [5]
  Number of scratching behavior (means ± standard error): 50 ± 10

## Cl.O=C(N[C@H]1CN2CCC1CC2)c1ccc2c(c1)OCCO2 [Reference Example 10, N-(1-Azabicyclo[2.2.2]oct-3(R)-yl)-2,3-dihydro-1,4-benzodioxin-6-carboxamide hydrochloride]
[1]; [3]
  inhibition at 0.1 mg/kg: 3%
  inhibition at 0.3 mg/kg: 17%
  inhibition at 1 mg/kg: 58%
[1]; [8]
  Number of scratching behavior (means ± standard error): 131 ± 18
[1]; [4]
  Number of scratching behavior (means ± standard error): 115 ± 19
[1]; [5]
  Number of scratching behavior (means ± standard error): 69 ± 10

## O=C(O)Cc1ccccc1Nc1c(Cl)cccc1Cl [diclofenac]
[2]
  Inhibition of substance P-induced scratching behavior in mice (in words): not inhibited

## COc1ccc2c(c1)c(CC(=O)O)c(C)n2C(=O)c1ccc(Cl)cc1 [indomethacin]
[2]
  Inhibition of substance P-induced scratching behavior in mice (in words): not inhibited

## C=CC[C@@H]1/C=C(\C)C[C@H](C)C[C@H](OC)[C@H]2O[C@@](O)(C(=O)C(=O)N3CCCC[C@H]3C(=O)O[C@H](/C(C)=C/[C@@H]3CC[C@@H](O)[C@H](OC)C3)[C@H](C)[C@@H](O)CC1=O)[C@H](C)C[C@@H]2OC [tacrolimus]
[2]
  Inhibition of substance P-induced scratching behavior in mice (in words): not inhibited
